This note sets out measurements from US20080021030A1, “Substituted Pyrazoles As Ppar Agonists” (priority 2003, published 2008).

What all share (experiment): Transient transfection (transactivation) assay in CV-1 cells, GAL4-PPAR LBD chimera, SPAP reporter
Assay type in all cases: cell-based

The target of test [1] is T1, hPPAR alpha (Homo sapiens, UniProt Q07869).
T1 construct: expressed in transfected cells; host or cells: CV-1 cells
T1 sequence (Q07869 239-466 limits assumed): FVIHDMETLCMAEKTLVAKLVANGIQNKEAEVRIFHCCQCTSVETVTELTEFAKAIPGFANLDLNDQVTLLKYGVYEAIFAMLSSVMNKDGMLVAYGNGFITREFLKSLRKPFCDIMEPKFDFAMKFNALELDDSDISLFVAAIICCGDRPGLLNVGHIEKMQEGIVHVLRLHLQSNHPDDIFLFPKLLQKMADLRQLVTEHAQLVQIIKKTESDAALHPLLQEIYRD
As to conditions: read-out: EC50 μM HPPARα. An excerpt: (§1) Compounds were screened for functional potency in transient transfection assays in CV-1 cells for their ability to activate the PPAR subtypes (transactivation assay). A previously established chimeric receptor system was utilized to allow comparison of the relative transcriptional activity of the receptor subtypes on the same target gene and to prevent endogenous receptor activation from complicating the interpretation of results. See, for example, Lehmann, J. M.; Moore, L. B.; Smith-Oliver, T. A.; Wilkison, W. O.; Willson, T. M.; Kliewer, S. A., An antidiabetic thiazolidinedione is a high affinity ligand for peroxisome proliferator-activated receptor gamma (PPARgamma), J. Biol. Chem., 270, 12953-6 (1995). The ligand binding domains for murine and human PPAR alpha, PPAR gamma, and PPAR delta were each fused to the yeast transcription factor GAL4 DNA binding domain. CV-1 cells were transiently transfected with expression vectors for the respective PPAR chimera along with a reporter construct containing five copies of the GAL4 DNA binding site driving expression of secreted placental alkaline phosphatase (SPAP) and beta-galactosidase. After 16 h, the medium was exchanged to DME medium supplemented with 10% delipidated fetal calf serum and the test compound at the appropriate concentration. After an additional 24 h, cell extracts were prepared and assayed for alkaline phosphatase and β-galactosidase activity. Alkaline phosphatase activity was corrected for transfection efficiency using the beta-galactosidase activity as an internal standard (see, for example, Kliewer, S. A., et. al. Cell 83, 813-819 (1995)). Rosiglitazone (BRL 49653) was used as a positive control in the hPPAR gamma assay. The positive control in the hPPAR alpha assays was 2-4-[2-(3-[4-fluorophenyl]-1-heptylureido)ethyl]-phenoxy-(2-methyl propionic acid (WO 97/36579). The positive control for PPAR delta assays was 2-{2-methyl-4-[({4-methyl-2-{trifluoromethyl)phenyl]-1,3-thiazol-5-yl}methyl)sulfanyl]phenoxy}acetic acid (WO 01/00603). The positive control was (5-{4-[2-(Methyl-pyridin-2-yl-amino)-ethoxy]-benzyl}-thiazolidine-2,4-dione (J. Med. Chem. 1994, 37(23), 3977), for PPAR gamma.
(§2) Activities in three hPPAR subtypes are reported in the table and are expressed in micromolar.

Test [2] concerns the target T2, hPPAR delta (Homo sapiens, UniProt Q03181).
T2 construct: expressed in transfected cells; host or cells: CV-1 cells
T2 sequence (Q03181 211-439 limits assumed): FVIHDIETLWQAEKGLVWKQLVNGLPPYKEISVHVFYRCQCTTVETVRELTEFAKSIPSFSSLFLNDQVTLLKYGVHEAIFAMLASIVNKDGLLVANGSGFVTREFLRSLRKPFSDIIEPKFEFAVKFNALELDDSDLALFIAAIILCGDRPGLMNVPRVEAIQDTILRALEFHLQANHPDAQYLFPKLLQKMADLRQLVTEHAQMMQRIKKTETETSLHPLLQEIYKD
As to conditions: read-out: EC50 μM HPPARδ.
Source text: as §1, §2

Test [3] concerns the target T3, hPPAR gamma (Homo sapiens, UniProt P37231).
T3 construct: expressed in transfected cells; host or cells: CV-1 cells
T3 sequence (P37231 238-503 limits assumed): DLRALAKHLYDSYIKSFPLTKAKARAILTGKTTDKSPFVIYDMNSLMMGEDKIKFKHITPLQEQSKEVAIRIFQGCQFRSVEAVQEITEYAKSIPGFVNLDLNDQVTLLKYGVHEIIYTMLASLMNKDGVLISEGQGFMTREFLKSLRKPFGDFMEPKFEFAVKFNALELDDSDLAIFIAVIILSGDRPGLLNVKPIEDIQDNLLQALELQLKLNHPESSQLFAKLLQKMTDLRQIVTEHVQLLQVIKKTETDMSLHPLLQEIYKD
As to conditions: read-out: EC50 μM HPPARγ. An excerpt:
Compounds were screened for functional potency in transient transfection assays in CV-1 cells for their ability to activate the PPAR subtypes (transactivation assay). A previously established chimeric receptor system was utilized to allow comparison of the relative transcriptional activity of the receptor subtypes on the same target gene and to prevent endogenous receptor activation from complicating the interpretation of results. […] The ligand binding domains for murine and human PPAR alpha, PPAR gamma, and PPAR delta were each fused to the yeast transcription factor GAL4 DNA binding domain. CV-1 cells were transiently transfected with expression vectors for the respective PPAR chimera along with a reporter construct containing five copies of the GAL4 DNA binding site driving expression of secreted placental alkaline phosphatase (SPAP) and beta-galactosidase. After 16 h, the medium was exchanged to DME medium supplemented with 10% delipidated fetal calf serum and the test compound at the appropriate concentration. After an additional 24 h, cell extracts were prepared and assayed for alkaline phosphatase and β-galactosidase activity.

SMILES strings stand for the structures. Some results are limits rather than exact numbers.

Consider `Cc1cc(CNC(=O)c2cc(-c3ccc(C(C)(C)C)cc3)n(C)n2)ccc1OC(C)(C)C(=O)O` [Example 1, 2-[(4-{[({5-[4-(1,1-dimethylethyl)phenyl]-1-methyl-1H-pyrazol-3-yl)carbonyl)amino]methyl}-2-methylphenyl)oxy]-2-methylpropanoic acid], for which the values for the EC50 in test [1] and in test [2] were 0.014 µM and 5.45 µM, respectively.
As to `Cc1cc(CNC(=O)c2cc(-c3ccc(C(C)C)cc3)nn2C)ccc1OC(C)(C)C(=O)O` [Example 2], the EC50 (in general, the midpoint of the concentration-response curve) in test [1] turned out to be 0.018 µM; in test [2], 0.82 µM; in test [3] it was 0.044 µM.
For the compound `C=CCc1cc(CNC(=O)c2cc(-c3ccc(C(C)(C)C)cc3)nn2C)ccc1OC(C)(C)C(=O)O` [Example 3], the figures for the EC50 in test [1], in test [2] and in test [3] were 0.1 µM, over 10 µM and 0.212 µM, respectively.
Turning to `CCCc1cc(CNC(=O)c2cc(-c3ccc(C(C)(C)C)cc3)nn2C)ccc1OC(C)(C)C(=O)O` [Example 4, 2-[(4-{[{(3-[4-(1,1-dimethylethyl)phenyl]-1-methyl-1H-pyrazol-5-yl}carbonyl)amino]methyl}-2-propylphenyl)oxy]-2-methylpropanoic acid], the figures for the EC50 in test [1], in test [2] and in test [3] were 0.066 µM, 1.09 µM and 0.072 µM, respectively.
As for `CCn1nc(-c2ccc(C(C)(C)C)cc2)cc1C(=O)NCc1ccc(OC(C)(C)C(=O)O)c(OC)c1` [Example 5], the EC50 in test [1] was 0.301 µM; in test [2], over 10 µM; in test [3] it was 0.444 µM.
For `Cc1cc(CNC(=O)c2cc(-c3ccc(CC(C)C)cc3)n(C)n2)ccc1OC(C)(C)C(=O)O` [Example 7, 2-methyl-2-[(2-methyl-4-{[({1-methyl-5-[4-(2-methylpropyl)phenyl]-1H-pyrazol-3-yl}carbonyl)amino]methyl}phenyl)oxy]propanoic acid], the figures for the EC50 in test [1], in test [2] and in test [3] were 0.002 µM, 2.06 µM and 0.008 µM, respectively.
In the case of `Cc1cc(CNC(=O)c2cc(-c3ccc(CC(C)C)cc3)nn2C)ccc1OC(C)(C)C(=O)O` [Example 8, 2-methyl-2-[(2-methyl-4-{[({1-methyl-3-[4-(2-methylpropyl)phenyl]-1H-pyrazol-5-yl}carbonyl)amino]methyl}phenyl)oxy]propanoic acid], the figures for the concentration giving a half-maximal response (EC50) in test [1], in test [2] and in test [3] were 0.051 µM, 1.07 µM and 0.059 µM, respectively.
Regarding `COc1cc(CNC(=O)c2cc(-c3ccc(C(C)C)cc3)nn2C)ccc1OC(C)(C)C(=O)O` [Example 10], the EC50 in test [1] was 2.9 µM; in test [2], over 10 µM; in test [3], 0.554 µM.
As to `Cc1cc(CNC(=O)c2cc(-c3ccc(C(C)(C)C)cc3)nn2C)ccc1OC(C)(C)C(=O)O` [Example 11, 2-[(4-{[({3-[4-(1,1-dimethylethyl)phenyl]-1-methyl-1H-pyrazol-5-yl}carbonyl)amino]methyl}-2-methylphenyl)oxy]-2-methylpropanoic acid], the results for the EC50 in test [1] and in test [2] were 0.05 µM and 2.17 µM, respectively.
Turning to `COc1cc(CNC(=O)c2cc(-c3ccc(C(C)(C)C)cc3)nn2C)ccc1OC(C)(C)C(=O)O` [Example 12, 2-{[4-{[({3-[4-(1,1-dimethylethyl)phenyl]-1-methyl-1H-prazol-5-yl}carbonyl)amino]methyl}-2-(methyloxy)phenyl]oxy}-2-methyl propanoic acid], the EC50 in test [1] was 1.05 µM; in test [2], over 10 µM; in test [3], 0.432 µM.
`CCn1nc(C(=O)NCc2ccc(OC(C)(C)C(=O)O)c(C)c2)cc1-c1ccc(C(C)(C)C)cc1` [Example 13, 2-[(4-{[({5-[4-(1,1-dimethylethyl)phenyl]-1-ethyl-1H-pyrazol-3-yl}carbonyl)amino]methyl}-2-methylphenyl)oxy]-2-methylpropanoic acid]: the EC50 in test [1] is 0.009 µM; in test [2], over 10 µM; in test [3], 0.011 µM.
Consider `COc1cc(CNC(=O)c2cc(-c3ccc(CC(C)C)cc3)n(C)n2)ccc1OC(C)(C)C(=O)O` [Example 14], for which the EC50 in test [1] is 0.177 µM; in test [2], over 10 µM; in test [3], 0.13 µM.
Taken in the same sequence, the figures for `CCn1nc(-c2ccc(C(C)(C)C)cc2)cc1C(=O)NCc1ccc(OC(C)(C)C(=O)O)c(C)c1` [Example 15, 2-[(4-{[({3-[4-(1,1-dimethylethyl)phenyl]-1-ethyl-1H-pyrazol-5-yl}carbonyl)amino]methyl}-2-methylphenyl)oxy]-2-methyl propanoic acid] were 0.075 µM, 2.44 µM and 0.024 µM.
Regarding `Cn1nc(-c2ccc(C(C)(C)C)cc2)cc1C(=O)NCc1ccc(OC(C)(C)C(=O)O)cc1` [Example 16, 12-[(4-{[({3-[4-[1,1-dimethylethyl)phenyl]-1-methyl-1H-pyrazol-5-yl}carbonyl)amino]methyl}phenyl)oxy]-2-methylpropanoic acid], the values for the EC50 in test [1] and in test [3] were 0.163 µM and 1.09 µM, respectively.
In the case of `Cn1nc(C(=O)NCc2ccc(OC(C)(C)C(=O)O)cc2)cc1-c1ccc(C(C)(C)C)cc1` [Example 17], the EC50 in test [1] stood at 0.07 µM; in test [3], 0.376 µM.
Regarding `Cc1cc(CNC(=O)c2cc(-c3ccc(C(C)C)cc3)n(C)n2)ccc1OC(C)(C)C(=O)O` [Example 18], the EC50 was 0.004 µM in test [1], 4.02 µM in test [2] and 0.009 µM in test [3].
As for `Cc1cc(CNC(=O)c2cc(-c3ccc(N4CCCC4)cc3)n(C)n2)ccc1OC(C)(C)C(=O)O` [Example 20, 2-methyl-2-[(2-methyl-4-{[({1-methyl-5-[4-(1-pyrrolidinyl)phenyl]-1H-pyrazol-3-yl}carbonyl)amino]methyl}phenyl)oxy]propanoic acid], the EC50 in test [1] was found to be 0.076 µM; in test [2], 1.06 µM; in test [3], 0.02 µM.
Consider `Cc1cc(CNC(=O)c2cc(-c3ccc(N4CCCCC4)cc3)n(C)n2)ccc1OC(C)(C)C(=O)O` [Example 21], for which the half-maximal effective concentration (EC50) in test [1] came out at 0.01 µM; in test [2], 1.12 µM; in test [3], 0.005 µM.
As to `Cc1cc(CNC(=O)c2cc(-c3ccc(-c4ccccc4)cc3)n(C)n2)ccc1OC(C)(C)C(=O)O` [Example 22, 2-({4-[({[5-(4-biphenylyl)-1-methyl-1H-pyrazol-3-yl]carbonyl}amino)methyl]-2-methylphenyl}oxy)-2-methylpropanoic acid], the EC50 amounted to 0.02 µM in test [1] and 1.55 µM in test [2].
For the compound `C=CCOc1ccc(-c2cc(C(=O)NCc3ccc(OC(C)(C)C(=O)O)c(C)c3)nn2C)cc1` [Example 59, 2-methyl-2-[(2-methyl-4-{[({1-methyl-5-[4-(2-propen-1-yloxy)phenyl]-1H-pyrazol-3-yl}carbonyl)amino]methyl}phenyl)oxy]propanoic acid], the EC50 in test [1] turned out to be 0.094 µM; in test [3], 0.028 µM.
